Experimental data as given in PubChem BioAssay (NCI).
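Values below derive from 48-hour exposures of cells grown in 96-well plates, with endpoints linearly interpolated between the two concentrations bracketing the appropriate inhibition level. GI50 marks 50% less growth. TGI is the concentration that stops growth completely.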

Assays:
Assay in all cases: growth of human tumour cells (NCI), 48 h
[1] = tested on: 786-0 renal
[2] = tested on: BT-549 breast
[3] = tested on: DU-145 prostate
[4] = tested on: HCT-15 colon
[5] = tested on: HS 578T breast
[6] = tested on: MDA-MB-231 breast
[7] = tested on: MDA-N
[8] = tested on: NCI-H226 lung
[9] = tested on: NCI-H522 lung
[10] = tested on: NCI/ADR-RES ovarian
[11] = tested on: T-47D breast
[12] = tested on: UACC-62 melanoma
[13] = tested on: SR leukemia

| SMILES | TGI [1] [µM] | TGI [2] [µM] | TGI [3] [µM] | TGI [4] [µM] | TGI [5] [µM] | TGI [6] [µM] | TGI [7] [µM] | TGI [8] [µM] | TGI [9] [µM] | TGI [10] [µM] | TGI [11] [µM] | TGI [12] [µM] | TGI [13] [µM] | GI50 [3] [µM] | GI50 [4] [µM] | GI50 [5] [µM] | GI50 [6] [µM] | GI50 [9] [µM] | GI50 [10] [µM] | GI50 [12] [µM] |
| --- | --- | --- | --- | --- | --- | --- | --- | --- | --- | --- | --- | --- | --- | --- | --- | --- | --- | --- | --- | --- |
| Cc1ccc(-c2cc(-c3ccc(Cl)cc3)nc(/N=C3\C(=O)N(CN4CCOCC4)c4ccccc43)n2)cc1 | 74.3 | 88.5 | > 100 | > 100 | 51.5 | > 100 | 37.6 | 89.9 | 30.1 | > 100 | > 100 | 41.4 |  |  |  |  |  |  |  |  |
| COC(=O)C(=O)C(C(=O)C1=NS(=O)(=O)c2cc(S(N)(=O)=O)c(Cl)cc2N1)c1nc2ccc(C(=O)c3ccccc3)cc2[nH]c1=O (stereo not given) | > 100 |  |  | > 100 |  |  |  | > 100 | > 100 |  |  | > 100 | > 100 |  |  |  |  |  |  |  |
| CC(N)C(=O)OCN1C(=O)C2C3C=CC(C2C1=O)C1C2C(=O)N(COC(=O)C(C)N)C(=O)C2C31 (stereo not given) | 37.6 |  |  | 37.9 |  |  |  | > 100 |  |  |  | 49 | 29.3 |  |  |  |  |  |  |  |
| CCN1CCN(c2nc3ccccc3nc2C(=O)c2ccc(OC)cc2)CC1 | 64.8 |  | > 100 | > 100 | > 100 |  | > 100 |  | > 100 | > 100 | > 100 | 45 | 93.4 |  |  |  |  |  |  |  |
| C=C1C(=O)OC2/C=C(\C)C3OC3/C=C(/C(=O)OC)C(O)C(OC(=O)C3(C)OC3C)C12 (stereo not given) | 3.26 |  |  | 3.78 |  |  |  | 32.2 | 0.6 |  |  | 5.19 | 3.05 |  |  |  |  |  |  |  |
| CS/C(C#N)=C(\C#N)SC | > 100 |  | 40.7 | 5.95 | > 100 | 89.6 |  | 5.92 | 3.75 | > 100 | 26.2 | 14.4 | 5.43 |  |  |  |  |  |  |  |
| Cc1ccccc1[P+](C)(c1ccccc1C)c1ccccc1C | 93.7 | 63.1 | > 100 | 48.2 | 55 | 35.2 |  | 35.7 | 21.6 | 58.8 | 12.9 | 25.7 |  |  |  |  |  |  |  |  |
| CN(C)CC1CCCC(CN2CCCCC2)C1=O (stereo not given) | 6.07 | 28.7 | 32.5 | 27.9 | 59 | 28.3 | 27.5 | 43.1 | 0.204 | 14.6 | 4.85 | 33.5 | > 100 |  |  |  |  |  |  |  |
| [O-]c1c[n+](CCCC[n+]2cc([O-])on2)no1 | > 100 | > 100 | > 100 | > 100 | > 100 | > 100 | > 100 |  | > 100 | > 100 | > 100 | > 100 |  |  |  |  |  |  |  |  |
| CC1=C(C#N)C23C(=O)c4ccccc4C(O)=C2C(=O)C=CC3(O)N1 (stereo not given) | 28.1 | 3.38 | 7.69 | > 100 |  | 43.5 | 3.95 | 32 | 4.81 | > 100 | > 100 | 6.4 | 1.5 |  |  |  |  |  |  |  |
| Cn1cc(-c2csc(-c3cn(C)c4ccc(Br)cc34)n2)c2cnccc21 |  |  | 3.17 | 3.25 | 4.73 | 3.09 |  |  | 3.44 | 3.91 |  | 3.21 |  | 1.74 | 1.75 | 2.23 | 1.66 | 1.76 | 2.07 | 1.72 |
| Oc1cccc(-c2ccc3c4c2O[C@H]2c5[nH]c6ccccc6c5C[C@@]5(O)[C@@H](C3)N(CC3CC3)CC[C@]425)c1 | 2.97 | 23 | 3.36 | 3.03 | 3.55 | 4.03 | 3.05 | 28.9 |  | 4.69 |  |  |  |  |  |  |  |  |  |  |
| Cc1cccc(O)c1-c1nnc(CCCCCCCCc2nnc(-c3c(C)cccc3O)n2N)n1N |  | > 100 | > 100 | > 100 | > 100 | > 100 | > 100 | > 100 | 97.2 |  | > 100 | > 100 | > 52.5 |  |  |  |  |  |  |  |
| O=c1oc2ccccc2n1P(=O)(n1c(=O)oc2ccccc21)n1c(=O)oc2ccccc21 |  |  |  |  |  |  |  | > 100 | > 100 |  |  | > 100 | > 100 |  |  |  |  |  |  |  |
| CC(=O)OCc1ccc2oc(=O)c(C(=O)Oc3cccc(Cl)c3)cc2c1 | > 100 | > 100 | > 100 | > 100 | > 100 | 98.8 | > 100 | > 100 | > 100 | > 100 | 41 | 34.2 | > 100 |  |  |  |  |  |  |  |
| CO[C@H]1ON=C(c2c(C)cc(C)cc2C)[C@@H]1C1(c2ccccc2)ON=C(c2c(C)cc(C)cc2C)O1 (stereo not given in full) |  |  |  |  |  |  |  |  | > 100 |  |  | > 100 | > 100 |  |  |  |  |  |  |  |
| NC(=O)c1ccc(NS(=O)(=O)c2ccc(N)cc2)nc1 | > 100 | > 100 | > 100 | > 100 | > 100 | > 100 | > 100 | > 100 |  | > 100 | > 100 | > 100 |  |  |  |  |  |  |  |  |
| CN1C(=O)CN2C(Cl)(Cl)C2(c2ccccc2F)c2cc([N+](=O)[O-])ccc21 (stereo not given) |  |  |  | > 100 |  |  |  | 92.5 | > 100 |  |  | > 100 | > 100 |  |  |  |  |  |  |  |
| CN(C)CCCNC(=O)c1cc(NC(=O)c2cc(NS(=O)(=O)c3ccc4c(c3)C(=O)c3ccccc3C4=O)cn2C)cn1C | > 100 | > 100 | > 100 | > 100 |  | > 100 | > 100 | > 100 | > 100 | > 100 | > 100 | > 100 | > 100 |  |  |  |  |  |  |  |
| CCN1C(=S)n2cccc2C1CC(=O)c1ccc(Cl)cc1 (stereo not given) | > 100 | > 100 | > 100 | > 100 | > 100 | > 100 | > 100 |  | > 100 | > 100 | > 100 | > 100 | > 100 |  |  |  |  |  |  |  |
| C1CCC(OCc2nnn3c2CCC3)OC1 (stereo not given) |  |  |  | > 100 |  |  |  |  | > 100 |  |  | > 100 | > 100 |  |  |  |  |  |  |  |
| O=Nc1c(-c2c(O)[nH]c3ccccc23)[nH]c2ccccc12 | > 49.9 | 30 | 31 | > 87.5 | > 29.1 | 21.2 | > 47.4 |  | 20.9 | > 100 | > 48.7 | 11.1 | > 100 |  |  |  |  |  |  |  |
| COc1ccc(CC2c3cc(OC)c(OC)c(OC)c3CC[N+]2(C)C)cc1Oc1ccc(CC2c3cc4c(c(OC)c3CC[N+]2(C)C)OCO4)cc1 (stereo not given) | > 100 | > 100 | > 100 | > 100 | > 100 | > 100 |  | > 100 | > 100 | > 100 | > 100 | > 100 | > 100 |  |  |  |  |  |  |  |
| Nc1ccc(Oc2ccc(C3(c4ccc(Oc5ccc(N)cc5)cc4)C4CC5C6CC7CC5C3C(C7)C6C4)cc2)cc1 | > 100 | > 100 | > 100 | > 100 | > 100 | 77 | > 100 | > 100 | > 100 | > 100 |  | > 100 | > 100 |  |  |  |  |  |  |  |
| C[C@H]1C(=O)O[C@@H]1[C@H]1COC(C)(C)O1 |  | > 100 |  | > 100 |  | > 100 | > 100 | > 100 |  | > 100 |  | > 100 | > 100 |  |  |  |  |  |  |  |
| Cc1nc2c(O)cc3c4c(=O)n(C)c(=O)n(C)c4n(Cc4ccccc4)c3c2nc1C | 32.8 |  | > 100 | 34.3 | 80.1 | 38.2 | 34.2 | 55.3 |  | 74.9 |  | 34 | 57.6 |  |  |  |  |  |  |  |
| Nc1nc(Cl)cc(NCCCNc2cc(Cl)nc(N)n2)n1 |  |  |  | > 100 |  |  |  | > 100 |  |  |  | > 100 | > 100 |  |  |  |  |  |  |  |
| c1ccc(CSc2ccccc2CN2CCN(Cc3ccccc3SCc3ccccc3)CCN(Cc3ccccc3SCc3ccccc3)CC2)cc1 | 3.01 | 4.1 | 12.3 | 3.3 |  | 3.16 | 3.02 | 3.46 | 1.76 | 6.85 | 4.81 | 3.23 |  |  |  |  |  |  |  |  |
| CCCCC(C(=O)N/N=C/c1ccc([N+](=O)[O-])o1)C(=O)N/N=C/c1ccc([N+](=O)[O-])o1 | 5.5 | 17.2 | 42.9 | 6.47 | 5.57 | 12 | 16.1 | 5.1 |  | 5.91 | 7.69 | 11.5 |  |  |  |  |  |  |  |  |
